Where “and” joins values, the source holds several entries; their conditions need not be identical. Equal entries are not always repeated. Where two headings read alike, the source gives them in different places.
Key:
[1] = tested on: estrogen receptor (ER); design: method as in PMID 15111773, PMID 16690721, PMID 21451508; details: fold higher; cited from earlier work
[2] = Steady-state plasma concentration of (Z)-endoxifen (UPLC-MS/MS) in tamoxifen-treated breast cancer patients; format: in vivo, human; details: tamoxifen 20 mg daily
Source text: (§1) Between May 2012 and June 2014, 293 patients were recruited for a study of CYP2D6 genotype association with plasma concentrations of tamoxifen and its metabolites. Details of the inclusion criteria, study protocol, genotyping and mass spectrometry (MS) methodology, and primary results were reported previously. Briefly, all patients were Polish Caucasians, unselected women with verified hormone receptor-positive breast cancer (median age at diagnosis: 55 years; range: 25–95 years) receiving the standard treatment of 20 mg of tamoxifen daily for at least 1 month to ensure the steady-state plasma concentration of tested compounds. The median time between the initiation of tamoxifen treatment and blood sample collection was 21.5 months. Six patients had plasma drug concentrations <10% of the mean tamoxifen level across all patients and were excluded from further analyses.
(§2) As previously described, whole blood samples were collected at study enrollment, and plasma was immediately separated and stored at −80 °C until ultraperformance liquid chromatography tandem MS (UPLC-MS/MS) analysis. For all samples, plasma concentrations of tamoxifen and its 14 key metabolites were measured, including the following: NDM-Tam, (Z)-endoxifen, (E)-endoxifen, 3-OH-NDM-Tam, 4′-OH-NDM-Tam, (Z)-4-OH-Tam, 3-OH-Tam, 4′-OH-Tam, (Z)-α-OH-Tam, (E)-α-OH-Tam, Tam-N-oxide, Tam-N-β-D-glucuronide (Tam-N-gluc), (E/Z)-4-OH-NDM-Tam-β-D-glucuronide ((E/Z)-4-OH-NDM-Tam-gluc), and (E)-4-OH-Tam-O-β-D-glucuronide ((E)-4-OH-Tam-O-gluc). All of the above compounds and deuterated internal standards (Tam-d5, NDM-Tam-d5, and (Z)-4-OH-Tam-d5) were from Toronto Research Chemicals (North York, ON, Canada). Details of the sample preparation method, MS/MS parameters, and linearity ranges of the metabolite standards are included in File S1.
Sample preparation was carried out as described by Dahmane et al., with slight modifications, including protein precipitation by acetonitrile. Briefly, 100 µl of plasma was mixed with 300 µl of ISs solution (3.3 ng/ml of Tam-d5, 3.3 ng/ml of NDM-Tam-d5 and 4.2 ng/ml of (Z)-4-OH-Tam-d5) in acetonitrile. After vortexing and centrifugation (10 min; 18,000× g), 350 µl of clear supernatant was evaporated under nitrogen in 55°C. Finally, samples were dissolved in 100 µl of 10 mM ammonium formate in 50% methanol.
For sample separation, an Acquity UPLC system equipped with Acquity BEH Shield RP18 column (100 × 2.1 mm, 1.7 µm particle size) (Waters, Milford, MA, USA) was used. The column was thermostatted at 70°C. The mobile phase A consisted of ultrapure water, and phase B consisted of 0.1% formic acid in acetonitrile. The flow rate was 0.6 ml/min and the total run time was 16 min per sample under nonlinear gradient condition as follows: 10% to 80% B for 12 min (concave curve), 80% B for 2 min, 95% B for 1 min and 10% B for 1 min.
Detection was performed on a triple quadrupole mass spectrometer Xevo TQ-MS (Waters) in the positive ion electrospray ionization mode, with general mass spectrometry (MS) parameters as follows: capillary voltage, 3 kV; desolvation temperature, 550°C; desolvation gas (nitrogen) flow, 1000 l/h; cone gas (nitrogen) flow, 100 l/h and collision gas (argon) flow, 0.15 ml/min. Waters QuanLynx software was used for chromatograms integration and quantitation.
All compounds were divided between two calibration sets, A and B (Table 1), based on characteristic ions and retention times. Each set consisted of six calibration samples (CAL1 to CAL6) prepared by spiking blank plasma sample by an appropriate amount of analyte. The calibration range was chosen based on others’ published data, expected steady-state plasma metabolite concentration and our previous measurements. Linear calibration curves were obtained by plotting response (obtained by dividing peak area of analyte by peak area of internal standard) against calibration point of known concentration. […]

[3] = Metabolic ratio (MR): (Z)-endoxifen plasma concentration divided by the sum of concentrations of tamoxifen and other measured metabolites; format: in vivo, human; details: for Metabolic Ratio of (Z)-endoxifen, Mean ± SD: tamoxifen 20 mg daily, plasma; for Metabolic ratio (MR): individual tamoxifen-treated breast cancer patient samples
Source text: We previously reported that the CYP2D6 genotype accounts for 51% of the variability in tamoxifen metabolism directed toward endoxifen production, expressed as the metabolic ratio (MR) of (Z)-endoxifen (the major isomer of endoxifen produced from tamoxifen) plasma concentration divided by the sum of concentrations of tamoxifen and other measured metabolites. The metabolic ratio is more useful than (Z)-endoxifen concentration alone, because it accounts for omitted drug doses or the concomitant use of CYP2D6 inhibitors. Using simple linear regression, we estimated that an MR value of 0.0146 corresponds to the predefined 6 ng mL^−1 (Z)-endoxifen efficacy threshold level. Here, we adopted a genome-wide association study (GWAS) approach to search for new DNA variants that could assist in the prediction of impaired tamoxifen metabolism in Polish patients with breast cancer treated with the standard daily dose (20 mg).
as §1, §2
Genomic DNA samples extracted from blood were genotyped for CYP2D6 alleles, according to the nomenclature described at https://www.parmvar.org/gene/CYP2D6 [10], as previously reported. Briefly, individual TaqMan allelic discrimination assays were performed for 11 SNPs, and 3 TaqMan Gene Copy Number Assays were conducted to assess gene deletion or duplication (Thermo Fisher, Waltham, MA, USA). Each CYP2D6 allele was assigned to one of four phenotypic categories, according to its associated enzyme function. PM (nonfunctional) alleles included CYP2D6*3, *4, *5, *6, and *7; IM (reduced-function) alleles were CYP2D6*9, *10, *17, and *41; NM (WT; fully functional) alleles included CYP2D6*1 and *2; and UM (increased-function) alleles were duplicates of NM variants, such as CYP2D6*1XN and *2XN. For the current study, patients were categorized into two groups of CYP2D6 functional activity: 1) Impaired metabolizers, who were presumed to have impaired metabolism of tamoxifen toward endoxifen (with CYP2D6 diplotypes PM/PM, IM/PM, IM/IM, NM/PM, and NM/IM), and 2) normal metabolizers, with predicted therapeutically effective tamoxifen metabolism (carrying CYP2D6 diplotypes NM/NM and NM/UM).

[4] = design: method as in PMID 26232141; details: Polish women with fully active CYP2D6 (NM/NM); tamoxifen 20 mg daily; cited from earlier work
[5] = design: method as in PMID 26232141; details: simple linear regression; corresponds to predefined 6 ng mL^−1 (Z)-endoxifen threshold; cited from earlier work
[6] = tested on: breast cancer; details: cited from earlier work

Compound: 4-hydroxy-tamoxifen [4-OH-Tam]
- antiestrogenic potency relative to other tamoxifen metabolites and the parent drug [1]: up to 100 fold

Compound: CC/C(=C(\c1ccc(O)cc1)c1ccc(OCCNC)cc1)c1ccccc1 [(Z)-endoxifen, (Z)-4-hydroxy-N-desmethyl-tamoxifen]
- (Z)-endoxifen steady-state plasma concentration, Mean ± SD ([2]; CYP2D6 genotype IM/IM (n=3)): 3.05 ± 1.91 ng/mL
- (Z)-endoxifen steady-state plasma concentration, Mean ± SD ([2]; CYP2D6 genotype IM/PM (n=12)): 2.22 ± 0.87 ng/mL
- (Z)-endoxifen steady-state plasma concentration, Mean ± SD ([2]; CYP2D6 genotype NM/IM (n=44)): 5.60 ± 3.26 ng/mL
- (Z)-endoxifen steady-state plasma concentration, Mean ± SD ([2]; CYP2D6 genotype NM/NM (n=90)): 7.26 ± 3.18 ng/mL
- (Z)-endoxifen steady-state plasma concentration, Mean ± SD ([2]; CYP2D6 genotype NM/PM (n=99)): 4.85 ± 2.46 ng/mL
- (Z)-endoxifen steady-state plasma concentration, Mean ± SD ([2]; CYP2D6 genotype NM/UM (n=18)): 6.96 ± 3.75 ng/mL
- (Z)-endoxifen steady-state plasma concentration, Mean ± SD ([2]; CYP2D6 genotype PM/PM (n=21)): 1.79 ± 0.66 ng/mL
- Metabolic Ratio of (Z)-endoxifen, Mean ± SD ([3]; CYP2D6 genotype IM/IM (n=3)): 0.0063 ± 0.0022
- Metabolic Ratio of (Z)-endoxifen, Mean ± SD ([3]; CYP2D6 genotype IM/PM (n=12)): 0.0047 ± 0.0014
- Metabolic Ratio of (Z)-endoxifen, Mean ± SD ([3]; CYP2D6 genotype NM/IM (n=44)): 0.0125 ± 0.0054
- Metabolic Ratio of (Z)-endoxifen, Mean ± SD ([3]; CYP2D6 genotype NM/NM (n=90)): 0.0185 ± 0.0057
- Metabolic Ratio of (Z)-endoxifen, Mean ± SD ([3]; CYP2D6 genotype NM/PM (n=99)): 0.0108 ± 0.0043
- Metabolic Ratio of (Z)-endoxifen, Mean ± SD ([3]; CYP2D6 genotype NM/UM (n=18)): 0.0201 ± 0.0076
- Metabolic Ratio of (Z)-endoxifen, Mean ± SD ([3]; CYP2D6 genotype PM/PM (n=21)): 0.0037 ± 0.0013
- Metabolic ratio (MR) ([3]; CYP2D6 genotype IM/PM): 0.00274 and 0.00459 and 0.0029 and 0.00363
- Metabolic ratio (MR) ([3]; CYP2D6 genotype NM/IM): 0.00647 and 0.0081 and 0.00839 and 0.01209 and 0.0056 and 0.01085 and 0.0096 and 0.00997 and 0.01604
- Metabolic ratio (MR) ([3]; CYP2D6 genotype NM/NM): 0.01773 and 0.01628 and 0.0192 and 0.02007 and 0.01314 and 0.01689 and 0.01957 and 0.01357 and 0.0089 and 0.01713 and 0.01204 and 0.01768 and 0.01853 and 0.01753 and 0.01866 and 0.01752 and 0.01504 and 0.00404 and 0.01279 and 0.01592 and 0.01076 and 0.01005 and 0.01645
- Metabolic ratio (MR) ([3]; CYP2D6 genotype NM/PM): 0.01496 and 0.01155 and 0.00944 and 0.00815 and 0.01001 and 0.01495 and 0.00803 and 0.01657 and 0.01419 and 0.01098 and 0.0072 and 0.00801 and 0.01175 and 0.00523 and 0.00652 and 0.00522 and 0.00788 and 0.00603 and 0.00607 and 0.00605 and 0.01073
- Metabolic ratio (MR) ([3]; CYP2D6 genotype NM/UM): 0.013 and 0.01894 and 0.02933 and 0.01233
- Metabolic ratio (MR) ([3]; CYP2D6 genotype PM/PM): 0.00294 and 0.00405 and 0.0035 and 0.00163
- proportion of patients not achieving the beneficial threshold level of plasma (Z)-endoxifen [4]: over 30%
- MR value corresponding to the (Z)-endoxifen efficacy threshold level [5]: 0.0146

Compound: CC/C(=C(\c1ccc(O)cc1)c1ccc(OCCNC)cc1)c1ccccc1 [endoxifen, 4-hydroxy-N-desmethyl-tamoxifen]
- minimal threshold level of endoxifen to achieve the desired treatment efficacy ([6]; large retrospective study, lowest quintile): > 5.97 ng/mL
- lower breast cancer recurrence rate relative to patients with lower endoxifen concentrations ([6]; patients with endoxifen concentration >5.97 ng mL^−1): 26%
- endoxifen efficacy threshold level ([6]; ref 30): 5.3 ng/mL
- endoxifen efficacy threshold level ([6]; ref 32): 3.36 ng/mL
- antiestrogenic potency relative to other tamoxifen metabolites and the parent drug [1]: up to 100 fold

Source: paper PMC6722498, “Non-CYP2D6 Variants Selected by a GWAS Improve the Prediction of Impaired Tamoxifen Metabolism in Patients with Breast Cancer” (Journal of Clinical Medicine, 2019)
